Tests used:
tyrosinase [1] = test: Tyrosinase inhibition, conversion of L-DOPA to DOPAquinone; assay type: biochemical; details: 100 μg/ml
Source text: (§1) The enzyme tyrosinase catalyses the reactions leading to melanin biosynthesis from tyrosine. […] Substances inhibiting tyrosinase activity produce a clearing/bleaching effect on the skin, since they block melanin synthesis. The method used to determine the inhibition of tyrosinase activity in the oxidation reaction of L-tyrosine to L-DOPA is that described in Kim et al. […] Biol. Pharm. […] The method applied for determination of the inhibition of tyrosinase activity in the conversion of L-DOPA to DOPAquinone is that described in Masamoto et al. (Mushroom tyrosinase inhibitory activity of esculetin isolated from seeds of Euphorbia lathyris L. Biosci. Biotechnol. Biochem., 67(3), 631-634, 2003).

tyrosinase [2] = test: Tyrosinase inhibition, oxidation of L-tyrosine to L-DOPA; assay type: biochemical; details: 250 μg/ml
Source text: as §1

A549 cells (ATCC-CCL185) = test: BSO-induced oxidative stress, ROS by DCF fluorimetry in A549 cells; assay type: cell-based, human; details: with BSO, control without BSO = 100
Experimental: 10×10^5 A549 cells (ATCC-CCL185) have been seeded into wells with 3 ml of DMEM/F12K HAM medium (Sigma-Aldrich) with 10% FCS and incubated at 37° C. in a 5% CO2, water vapour saturated atmosphere. After 24 hours the culture medium is replaced by medium supplemented with BSO, which is left in contact with the cells for 20 hours. The medium is once again replaced with medium containing BSO in the presence or absence of the test compound. After 4 hours, quantitative measurement of the ROSs (hydroxyl radicals) is performed by washing the cells with phosphate buffer and then incubating them with 30 μM DCF-DA in buffer solution. At the end of a 15 minute incubation, excess DCF-DA is removed from the cells by washing, prior to measuring the fluorescence emitted.
Antioxidant activity measurements are performed using a (Hitachi F3010) spectrophotometer with excitation at 488 nm and measuring emission at 525 nm, and values are expressed in pmoles, by extrapolation from the calibration curve constructed using known quantities of DCF, and in relation to total cellular protein. Values are thus expressed in % ages with respect to the ROS content of the cells not subjected to treatment with BSO (control) to which are assigned a value of 100.
The Extracts 1 and 2, Teupolioside and Ascorbic Acid were solubilized in phosphate buffer 10 mM at pH 7.4, whereas trolox was solubilized in 0.1% of dimethylsulphoxide and culture medium.

[3] = Superoxide anion chemiluminescent assay (hypoxanthine/xanthine oxidase, Lumimax kit); assay type: biochemical; details: means of 6 independent assays
Source text: (§2) The superoxide anion has been measured by a chemiluminescent assay based on the hypoxanthine (HPX)/xanthine oxidase (XOD) reaction using the Lumimax Superoxide Anion Detection Kit (Stratagene, La Jolla, Calif., USA) and following the manufacturer's instructions. Hydroxyl radical scavenger activity has been measured by means of the Fenton reaction for the production of hydroxyl radicals and chemiluminescent dosage (using a Victor^3 chemiluminometer, Wallac, Finland) with luminol. Peroxynitrite ions have been determined by means of dosage with a spontaneous generator of peroxynitrites (3-morpholinosidnonimine hydrochloride; SIN-1) and a stable reagent for the nitroxyl ions (2-(4-carboxyphenyl)-4,4,5,5-tetramethylimidazoline-1-oxyl-3-oxide potassium salt PTIO spin trap) then dosed by means of electron spin resonance (ESR) using a Nippon Denshi JES-FR30. Lipid peroxidation has been generated using Fe^2+ induced-oxygen reactive species, and detected using thiobarbituric acid in accordance with Buege, J A & Aust, S D: Microsomal lipid peroxidation (Methods Enzymol.
(§3) The results are expressed as the concentration inhibiting 50% of activity (IC50), means of 6 independent assays.

[4] = Peroxynitrite scavenging (SIN-1, PTIO spin trap, ESR); assay type: biochemical; details: means of 6 independent assays
Source text: as §2, §3

[5] = Hydroxyl radical scavenger activity (Fenton reaction, luminol chemiluminescence); assay type: biochemical; details: means of 6 independent assays
Source text: as §2, with “Ajuga reptans Extracts 1 and 2, prepared as described in examples 1 and 2, and isoteupolioside have been used to assess in vitro antioxidant action with specific oxygen radical generating systems such as the superoxide anion (O2^−), the hydroxyl radical (HO^−), the peroxynitrite radical (ONOO^−) and the inhibition of lipid peroxidation. The” for “The”
The Extract 1 and the Extract 2 set forth in Table 4 are derived from Ajuga reptans cell cultures comprising the phenylpropanoids at 90% and 54%, respectively. The results are expressed as the concentration inhibiting 50% of activity (IC50), means of 6 independent assays.

3T3 fibroblasts = test: BSO-induced oxidative death of 3T3 fibroblasts (MTT); assay type: cell-based, BALB/c mouse; details: 1 mM; BSO 200 μM, 24 hours

In the case of Oc1cccc(O)c1 [Resorcinol, reference compound], the “Test LDOPA-DOPAquinone inhibitory activity (%)” value (tyrosinase [1]) is reported as 0% and the “Test L-tyrosine-DOPA inhibitory activity (%)” value (tyrosinase [2]) is reported as 56.9%.

With O=c1cc(CO)occ1O [Kojic acid, reference compound] the “Test LDOPA-DOPAquinone inhibitory activity (%)” value (tyrosinase [1]) was 35% and the “Test L-tyrosine-DOPA inhibitory activity (%)” value (tyrosinase [2]) was 94.1%.

With Cc1c(C)c2c(c(C)c1O)CCC(C)(C(=O)O)O2 (stereo not shown) [Trolox] the “% ROS in picomoles” value (A549 cells (ATCC-CCL185); 20 μM) was 125 ± 8 %.

In the case of O=C1c2c(O)cccc2C([C@@H]2O[C@H](CO)[C@@H](O)[C@H](O)[C@H]2O)c2cc(CO)cc(O)c21 (stereo partly shown) [Aloin, reference compound], the “Superoxide radical (IC50)” value [3] is reported as 7.6 µg/mL, the “Peroxynitrite radical (IC50)” value [4] is reported as 12.3 µg/mL and the “Hydroxyl radial (IC50)” value [5] is reported as 2.9 µg/mL.

In the case of O=C1O[C@H]([C@@H](O)CO)C(O)=C1O [Ascorbic acid, reference compound], the “% ROS in picomoles” value (A549 cells (ATCC-CCL185); 1 mM) is reported as 130 ± 10 % and the “% survived cells” value (3T3 fibroblasts) is reported as 72.3%.

— patent US9623063B2, “Extracts from Ajuga reptans cell lines, their preparation and use” (I.R.B. ISTITUTO DI RICERCHE BIOTECNOLOGICHE S.r.l., priority 2005, dated 2017)
